Target: T1, human FFA2R (Homo sapiens, UniProt O15552)
T1 sequence (O15552 1-330): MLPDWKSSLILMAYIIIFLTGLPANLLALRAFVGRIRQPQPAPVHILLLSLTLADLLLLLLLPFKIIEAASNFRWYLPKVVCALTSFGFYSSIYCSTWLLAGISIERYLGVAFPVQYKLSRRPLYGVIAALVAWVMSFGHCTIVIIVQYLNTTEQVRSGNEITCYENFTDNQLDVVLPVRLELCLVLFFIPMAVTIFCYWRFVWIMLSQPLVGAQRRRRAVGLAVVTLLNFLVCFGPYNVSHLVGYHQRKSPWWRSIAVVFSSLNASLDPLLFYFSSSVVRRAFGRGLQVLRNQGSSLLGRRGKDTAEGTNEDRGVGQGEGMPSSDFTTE
Experiment: inhibition of forskolin-induced cAMP, LANCE Ultra TR-FRET, HEK293
Assay type: cell-based

With CC(=O)CC(=O)O [acetoacetate] the EC50 was 1240 µM.
